Assays:
[1] = tested on: cultured primary neurons expressing LAMP1-APEX2-V5; test: CLA-tyramide proximity labeling of neuronal lysosomal proteins, imaging with HaloTag protein and antibody staining; assay type: cell-based, rat; conditions: 150 μM CLA-tyramide, FIG. 2C
Description: The exemplary system studied in this Example makes use of a unique substrate for proximity labeling, which is a CLA-phenol compound, which in some cases is referred to herein as a CLA-tyramide compound. As will be appreciated, the chemical structure of tyramide includes a phenol moiety. To establish efficacy, the exemplary system was used to detect proteins that are enriched in neuronal lysosomes with lysosome-targeted APEX2 (Lamp1-APEX2).
With reference to FIG. 2A, cultured primary neurons expressing LAMP1-APEX2-V5 were incubated with 0 μM, 50 μM, 150 μM, or 500 μM CLA-tyramide, respectively. Neurons were fixed, permeabilized, and incubated with HaloTag protein. Cells were then stained with antibodies against HaloTag, V5, and MAP5 to label CLA-tagged proteins, LAMP1-APEX2-V5 (lysosome APEX2), and neurons, respectively.
Line scans show the relative intensity of CLA-tagged proteins and LAMP1-APEX2-V5.

cilia and mitochondria = test: CLA-tyramide labeling in cilia and mitochondria, detection with EGFP-HaloTag protein; assay type: cell-based; conditions: 250 μM CLA-tyramide; FIGS. 3B and 3D
Protocol: CLA-tyramide labeling was conducted in cilia and mitochondria. FIGS. 3A and 3B show CLA-tyramide labeling in cilia. FIGS. 3C and 3D show CLA-tyramide labeling in mitochondria. FIGS. 3B and 3D are from experiments in which 250 μM CLA-tyramide was applied to cells. Cells were fixed, permeabilized, and incubated with EGFP-HaloTag protein.

APEX2 in the mouse brain = test: CLA-tyramide (CLA-phenol) mediated proximity labeling in mouse brain; assay type: in vivo; conditions: mouse brain samples; FIGS. 4A-4B
Protocol: CLA-tyramide (CLA-phenol) mediated proximity labeling was conducted in mouse brain. […] The mouse brain samples were fixed, permeabilized, and incubated with HaloTag protein. The samples were then stained with antibodies against HaloTag and V5 (on APEX2) to label CLA-tagged proteins and APEX2, respectively.

## O=C(NCCOCCOCCCCCCCl)NCCc1ccc(O)cc1 [CLA-tyramide]
[1]
  colocalization of CLA-tagged proteins and LAMP1-APEX2-V5 (line scans of relative intensity): Good colocalization
Cilia and mitochondria
  labeling in different subcellular compartments (cilia, mitochondria): can be applied to different subcellular compartments
APEX2 in the mouse brain
  co-localization of CLA-tagged proteins and APEX2 (V5): good co-localization of most structures

Reference: US20250123290A1, “BIOTIN-FREE PROXIMITY LABELING” (HOWARD HUGHES MEDICAL INSTITUTE, priority 2023, published 2025)
